Test results from US20250228869A1, “Benzodiazepine Pyrazolo Carboxamides as N-protein Inhibitors” (Pfizer Inc., priority 2024, published 2025).
Marks after values point to notes of the source that are not given here.

How the values were obtained:
[1] = Shake flask determination of distribution coefficient (log D); assay type: physicochemical; settings: 1-octanol / phosphate buffer
Procedure: Shake flask method of determining log D—Miniaturized version of log D assay described in Stopher, D. and McClean, S. J. Pharm. Pharmacol. 1990, 42, 144.
Nadolol, mexiletine, propranolol, quinidine, amitriptyline, and chlorproazine were dissolved in DMSO to a concentration of 10 mM and used as controls in each plate. D-neo-Inositol, 5-[[(2E)-3-[4-[[(5E)-5-[[(3-chloro-2,6-difluorophenyl)methoxy]imino]-5,6-dideoxy-β-D-arabino-hexofuranosyl]oxy]-3-hydroxyphenyl]-2-methyl-1-oxo-2-propenyl]amino]-5-deoxy-1,2-O-methylene-(9Cl) (CAS 247598-17) is used as an Internal Standard (IS).
All liquid handling steps were performed by a Biomek FX. Buffer-saturated 1-octanol (149 μL/well) was added to duplicate 1 mL capacity 96-well plates. Test compounds (10 mM in DMSO; 2 μL/well) and controls (10 mM in DMSO; 2 μL/well) were transferred from Matrix 2D barcoded storage tubes to the 96-well plates.
Following the addition of 1-octanol saturated phosphate buffer (149 μL/well), the plates were sealed with silicone well cap-mats. […]
Samples were analyzed by micro-flow reversed-phase liquid chromatography coupled to tandem mass spectrometry (μfLC-MS/MS). […]
Peak areas were corrected by dilution factors and incorporating internal standard, and the ratio of the corrected peak areas were used to calculate the results (log D value). The log D value for each compound was calculated using the following equation: […]

RSV A2 = test: RSV plaque reduction assay in HepG2 cells; assay type: cell-based; settings: human respiratory syncytial virus, HepG2, read-out: RSV A2 plaque, HepG2, EC50 (nM)
Text: The RSV plaque reduction assay is an infectivity assay which allows quantification of the number of infectious units in a distinct foci of RSV infection. As each plaque originates from a single infectious virus particle an accurate calculation of the anti-viral effect can be obtained by counting plaques in the presence and absence of an anti-viral compound. HepG2 cells (ECACC: 85011430) were passaged in flasks and seeded in 24-well plates in DMEM containing antibiotics and supplemented with 10% FBS. During inoculation and subsequent incubation, cells were cultured in DMEM containing 2% FBS. 100 plaque forming unit (PFU)/well of RSV (RSV A2 VR-1540) was mixed with serial dilutions of compound. Subsequently, 100 μL of the virus/compound mixtures was added to confluent HepG2 cell monolayers. Plates were incubated at 37° C. in a humidified 5% CO2 incubator for 2 hrs. The inoculum was then removed and 1 ml of overlay (4% CMC in 2% DMEM) was added to each well. Cells were cultured for 48 h at 37° C. in a humidified 5% CO2 incubator and then fixed with 75% acetone-25% methanol solution. Plates were washed under running water and blocking solution (2% skimmed milk powder in PBS-Tween) was added to each well and plates incubated on a shaker for 1 h at 37° C. […]

[2] = Relay method using human hepatocytes (clearance); assay type: in vitro ADME; settings: human hepatocytes incubations under relay conditions
Text: Relay Method Using Human Hepatocytes—Di, L., et al., Drug Metabolism and Disposition, 2012, 40, 1860-1865.
Pooled cryopreserved human hepatocytes of 10 donors were purchased from Celsis IVT (Baltimore, MD). This lot of pooled hepatocytes was used for all the studies. When selecting new lots of hepatocytes, enzyme activities need to be verified using marker compounds. Upon thawing, the hepatocytes were resuspended in Williams' medium E (custom formula number 91-5233EC; Invitrogen, Grand Island, NY) supplemented with HEPES and Na2CO3. The cells were counted using the trypan blue exclusion method, and the 24-well hepatocyte plates containing 0.5 million cells/ml were spiked with a compound at a final concentration of 1 μM (dimethyl sulfoxide, final concentration 0.025%; methanol, final concentration 0.125%), in a final incubation volume of 0.50 ml. […]
The LC mobile phases were as follows: (A) HPLC grade water containing 0.1% formic acid, and (B) acetonitrile containing 0.1% formic acid. […] Terfenadine was used as an internal standard for LC-MS/MS quantification in positive ion multiple reaction monitoring mode. All of the test compounds had good linearity with R^2>0.99, and the limit of quantitation was 1 nM for all of the compounds.
Human in vitro intrinsic clearance was calculated using methods as previously described in the reference above.

[3] = In vitro bone marrow assay; assay type: cell-based; settings: primary human bone marrow mononuclear cells, 5 days exposure, total cell count, read-out: Human Bone Marrow Tox IC50
Procedure: In vitro bone marrow assay—Chen, W., et al., J. Pharmacokinetics and Pharmacodynamics, 2020, 47, 163-182.
Primary human bone marrow mononuclear cells (Lonza) were cultured in stemline II hematopoietic stem cell expansion medium (Sigma Aldrich), supplemented with 5% FBS and under induction by the following cytokines (R&D Systems): 25 ng/mL stem cell factor (SCF), ng/mL G-CSF, 10 ng/mL granulocyte macrophage-colony stimulating factor, 3 U/mL erythropoietin (EPO), 15 ng/mL thrombopoietin (TPO), 10 ng/mL IL3, 10 ng/mL IL6, and ng/mL Flt3 ligand. Cell cultures were maintained in the 37° C., 5% CO2, and 98% humidity incubator (see reference for further details). Cells were preincubated for 1 day and were then exposed to either DMSO or compound for 5 additional days. Cell counts were determined manually using a hemocytometer from 10 μL aliquots and converted to the total cell number by adjusting for the volume of the cell culture medium in each well. While the total cell count included myeloid, erythroid, and megakaryocytic lineages, neutrophil precursors comprised the majority of the total cell population given the stimulatory conditions of the cell culture. […]

RSV = settings: Antimicrobial Agents and Chemotherapy 2007 (Chapman et al); cited from earlier work

Row | SMILES | logD [1] | EC50 (RSV A2) | Human Hepatocyte CLint,app (mL/min/million) [2] | IC50 at 5 days [3] | anti-RSV activity (RSV)
1 | CCS(=O)(=O)c1ccc(-c2nn3c(c2C(=O)N[C@H]2N=C(c4ccccc4)c4cccc(F)c4NC2=O)OCC(C)(C)C3)c(F)c1 [Example 2, (S)-2-(4-(ethylsulfonyl)-2-fluorophenyl)-N-(9-fluoro-2-oxo-5-phenyl-2,3-dihydro-1H-benzo[e][1,4]diazepin-3-yl)-6,6-dimethyl-6,7-dihydro-5H-pyrazolo[5,1-b][1,3]oxazine-3-carboxamide] | 3 | 3.5 nM | <0.14* mL/min/million | > 40000 nM | –
2 | O=C(Nc1ccccc1F)N[C@H]1N=C(c2ccccc2)c2ccccc2NC1=O [RSV604] | – | – | – | – | sub-micromolar
